Test [1] is described as follows: DPPH scavenging activity. The procedure:
DPPH solution was prepared one day before the experimental measurement. The solution bottle was kept in the dark and stirred at 4 °C for 16 h. Aluminum foil was used to cover the bottle. Shortly after the preparation of 0.1 mM DPPH solution in ethanol, 0.5 mL of this solution was added to 2 mL A. kharputense and A. azurea extracts in ethanol at various concentrations (10–30 µg/mL). A. kharputense and A. azurea samples were vortexed and incubated at 30 °C for 30 min in the dark. The DPPH^• absorbances were measured and evaluated at 517 nm in comparison with the blank sample [40].
(In general: Loss of DPPH colour is used to gauge radical scavenging.)

Test [2] in a line: ABTS scavenging activity. Here is the method:
In addition, the ABTS^•^+ scavenging capacity of A. kharputense and A. azurea was determined. The mixture comprised 2 mM ABTS in water combined with 2.45 mM potassium persulfate (K2S2O8) to form ABTS^•+. This mixture was then kept for six hours at room temperature and in the dark. The study was performed by first diluting the solution in phosphate buffer (pH 7.4) to achieve an absorption of 0.800 ± 0.05 at 734 nm in a 1 mL cuvette. The solution was then equilibrated at 30 °C, the temperature at which all subsequent tests were conducted. Subsequently, 3 mL of each of A. kharputense and A. azurea in ethanol at various concentrations (10–30 µg/mL) were combined with 1 mL each of ABTS^•+ solution. Following a 30 min period of agitation, the absorbances were measured at 734 nm, and the radical scavenging activities were calculated for each concentration.

For test [3] the following is noted: cited from earlier work.
A short description of test [4]: Fe^3+ reducing. To be noted: absorbance at 30 µg/mL.
The nature of test [5]: Cu^2+ reducing ability (CUPRAC). The note with it: absorbance at 30 µg/mL. The procedure: Equal volumes of 1.0 mM CuCl2, 7.5 mM neocuprine solutions, and 1.0 M ammonium acetate buffer (pH 6.5) were prepared according to the technique of Apak et al.. The plants were mixed with three different concentrations of the samples (15–45 µg/mL in ethanol), and the total reaction volume was adjusted to 2 mL. After the tubes were kept at room temperature for 30 min, the absorbance values at 450 nm were read spectrophotometrically.

Test [6] is described as follows: Fe^3+-TPTZ reducing (FRAP). To be noted: absorbance at 30 µg/mL. The procedure:
The ferric reducing capacity (FRAP) of plasma is measured using the technique outlined. At low pH, a strong blue hue with a maximum absorption at 593 nm is produced when a ferric–tripyridyltriazine (Fe^3+-TPTZ) complex is reduced to the Fe^2+ form.

Test [7] concerns the target α-glycosidase (Saccharomyces cerevisiae, UniProt P53341). The note with it: cited from earlier work.

This is an account of results in publication PMC12387182, “Polyphenolic Profiling and Evaluation of Antioxidant, Antidiabetic, Anti-Alzheimer, and Antiglaucoma Activities of Allium kharputense and Anchusa azurea var. azurea” (Life, 2025).

Sequence of α-glycosidase (P53341 whole entry): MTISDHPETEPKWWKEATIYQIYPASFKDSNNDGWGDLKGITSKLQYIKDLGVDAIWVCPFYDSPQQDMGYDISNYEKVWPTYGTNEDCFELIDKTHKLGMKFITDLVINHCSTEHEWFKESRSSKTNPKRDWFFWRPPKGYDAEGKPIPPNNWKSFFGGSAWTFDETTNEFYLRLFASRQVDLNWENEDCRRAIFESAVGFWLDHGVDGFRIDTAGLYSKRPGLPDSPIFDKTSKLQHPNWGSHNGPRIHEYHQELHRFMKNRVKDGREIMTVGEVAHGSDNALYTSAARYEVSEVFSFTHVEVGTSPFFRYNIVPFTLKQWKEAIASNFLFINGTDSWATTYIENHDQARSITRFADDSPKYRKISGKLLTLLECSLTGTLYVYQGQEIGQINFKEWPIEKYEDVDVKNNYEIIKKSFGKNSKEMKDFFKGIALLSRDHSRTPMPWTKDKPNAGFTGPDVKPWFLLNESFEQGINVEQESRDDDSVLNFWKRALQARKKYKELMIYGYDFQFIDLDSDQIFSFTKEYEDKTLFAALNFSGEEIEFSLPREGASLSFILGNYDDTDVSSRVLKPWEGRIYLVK

With `O=C1O[C@H]([C@@H](O)CO)C(O)=C1O` [Ascorbic acid], in test [1], the “DPPH^• Scavenging IC50” value is 18.61 ± 0.120 µg/mL. For the same compound, the “ABTS^•+ Scavenging IC50” value in test [2] is 28.79 ± 0.120 µg/mL. Also, the “DPPH radical scavenging activity (IC50)” value in test [3] is 3.6 µg/mL.

Take `COc1ccc(O)c(C(C)(C)C)c1` [BHA, butylated hydroxyanisole]: in test [1], the “DPPH^• Scavenging IC50” value is listed as 23.87 ± 0.097 µg/mL. The “Fe^3+ Reducing A (700 nm)” value in test [4] was found to be 1.76 ± 0.026. The “Cu^2+ Reducing A (450 nm)” value in test [5] is 1.58 ± 0.016. For the same compound, in test [2], the “ABTS^•+ Scavenging IC50” value was found to be 38.59 ± 0.130 µg/mL. In test [6], the “Fe^3+-TPTZ Reducing A (593 nm)” value is recorded as 1.75 ± 0.040.

Take `Cc1cc(C(C)(C)C)c(O)c(C(C)(C)C)c1` [BHT, butylated hydroxytoluene]: the “DPPH^• Scavenging IC50” value in test [1] turned out to be 13.34 ± 0.011 µg/mL. Further, in test [4], the “Fe^3+ Reducing A (700 nm)” value is on record as 2.08 ± 0.062. The “Cu^2+ Reducing A (450 nm)” value in test [5] is reported as 2.15 ± 0.068. Besides, in test [2], the “ABTS^•+ Scavenging IC50” value was determined as 32.00 ± 0.100 µg/mL. Moreover, the “Fe^3+-TPTZ Reducing A (593 nm)” value in test [6] is reported as 1.50 ± 0.080.

As for `Cc1c(C)c2c(c(C)c1O)CCC(C)(C(=O)O)O2` (centres unmarked) [Trolox], the “DPPH^• Scavenging IC50” value in test [1] is 20.98 ± 0.016 µg/mL. Besides, the “Fe^3+ Reducing A (700 nm)” value in test [4] amounted to 1.45 ± 0.005. Further, the “Cu^2+ Reducing A (450 nm)” value in test [5] came to 1.04 ± 0.102. In addition, the “ABTS^•+ Scavenging IC50” value in test [2] is reported as 53.26 ± 0.070 µg/mL. In addition, in test [6], the “Fe^3+-TPTZ Reducing A (593 nm)” value amounted to 0.84 ± 0.010.

In the case of `O=c1c(O[C@@H]2O[C@H](CO)[C@@H](O)[C@H](O)[C@H]2O)c(-c2ccc(O)c(O)c2)oc2cc(O)cc(O)c12` [isoquercitrin], in test [7], the “α-glycosidase inhibitory effect compared with Acarbose” value is on record as “stronger than that of Acarbose”.

For `Cc1c(C)c2c(c(C)c1O)CC[C@@](C)(CCC[C@H](C)CCC[C@H](C)CCCC(C)C)O2` [α-Tocopherol, α-tocopherol], in test [1], the “DPPH^• Scavenging IC50” value stood at 30.29 ± 0.056 µg/mL. In addition, the “Fe^3+ Reducing A (700 nm)” value in test [4] was determined as 0.94 ± 0.059. Further, the “Cu^2+ Reducing A (450 nm)” value in test [5] was 1.47 ± 0.044. Also, the “ABTS^•+ Scavenging IC50” value in test [2] worked out at 25.12 ± 0.070 µg/mL.
